Article PMC12691742, “Anti-Cancer Outcome of Glucocorticoid Receptor Transrepression by Synephrine Derivatives in Hematological Malignancies” (International Journal of Molecular Sciences, 2025)
“Also recorded” adds a separate entry of the source.

Assays:
[1] = test system: leukemia and lymphoma cells (Granta, K562); parameters: method as in PMID 39858397; conditions: leukemia and lymphoma cells; read-out: cell viability IC50; cited from earlier work
[2] = test system: GR phosphorylated by Ser211 in K562 and Granta cells; experiment: Western blot of nuclear phospho-GR (Ser211); format: cell-based; conditions: 10 h; Dex 10 µM, 4S-C2 50 µM, 8S-E3 50 µM, 10S-E2 15 µM, 13S-G2 25 µM
Protocol: (§1) Figure 3 Effects of synephrine derivatives on GR transactivation in Granta lymphoma and K562 leukemia cells. (A) Q-PCR analysis of FKBP51, GILZ, and DDIT4 mRNA expression in K562 and Granta cells. […] The Q-PCR results were normalized to the expression of the housekeeping gene RPL27 and are presented as fold changes compared to the control. The mean ± SD was calculated for three individual samples/condition (n = 3). Statistically significant differences compared to the control: * p < 0.05, ** p < 0.01. (B) The levels of the nuclear fraction of phospho-GR (Ser211) were determined using Western blot analysis (n = 3; characteristic images are presented in the figure). Histone H3 was used as a loading control.
Western blot analysis was performed as previously described. Proteins were resolved using SDS-PAGE. Membranes were blocked with 5% nonfat milk solution and then incubated with primary antibodies against phosphorylated GR (pGR, Ser211) (“Santa Cruz Biotechnology”, Santa Cruz, CA, USA) overnight at 4 °C. To verify equal protein loading and adequate transfer, the membranes were probed with Histone H3 antibodies (“Cell Signaling”, Boston, MA, USA). Goat anti-rabbit IgGs (“Jackson Immuno Research”, West Grove, PA, USA) were used as secondary antibodies. Signals were detected using ECL reagent and an ImageQuant LAS4000 system (“GE HealthCare”, Chicago, IL, USA). ImageJ 1.54h software was used for densitometry. The experiments were performed in triplicate.
7 K562, pGR nuclear 5 Granta, pGR nuclear
Supplementary Figure S 22. Quantification of Western blot analysis. K562 and Granta cells […]
μM) and 13S-G2 (25 μ M) for 10 h. Quantification of Western blot anal ysis of p- GR protein levels was done usin g Im a ge J f ree so ftwar e. Statisticall y significant diff eren ces as compared to control: […]

[3] = test system: DDIT4 expression in K562 cells; experiment: Q-PCR of DDIT4 in K562 cells; format: cell-based; conditions: 24 h, 8S-E3 25 µM
Description: (§2) Q-PCR results were confirmed by Western blot analysis of the level of GR phosphorylated by Ser211, known as a crucial protein modification for GR TA realization because of its binding to short cysteine-rich fragments of the coactivator CREB-binding protein [41].
as §1
(§3) Total RNA isolation from cell cultures and murine bones, reverse transcription, and Q-PCR were performed as described in [36]. Primers were designed using NCBI Primer-BLAST https://www.ncbi.nlm.nih.gov/tools/primer-blast/, accessed on 25 August 2025 (Supplementary Table S1). Results were normalized to the expression of the housekeeping RPL27 и Rpl27 genes. The experiments were performed in triplicate.

GR = target: T1, GR (Homo sapiens, UniProt P04150); experiment: GR radioligand binding assay, competition with [3H]Dex in K562 cells
T1 construct: endogenous in cells; host or cells: K562
T1 sequence (P04150 1-777): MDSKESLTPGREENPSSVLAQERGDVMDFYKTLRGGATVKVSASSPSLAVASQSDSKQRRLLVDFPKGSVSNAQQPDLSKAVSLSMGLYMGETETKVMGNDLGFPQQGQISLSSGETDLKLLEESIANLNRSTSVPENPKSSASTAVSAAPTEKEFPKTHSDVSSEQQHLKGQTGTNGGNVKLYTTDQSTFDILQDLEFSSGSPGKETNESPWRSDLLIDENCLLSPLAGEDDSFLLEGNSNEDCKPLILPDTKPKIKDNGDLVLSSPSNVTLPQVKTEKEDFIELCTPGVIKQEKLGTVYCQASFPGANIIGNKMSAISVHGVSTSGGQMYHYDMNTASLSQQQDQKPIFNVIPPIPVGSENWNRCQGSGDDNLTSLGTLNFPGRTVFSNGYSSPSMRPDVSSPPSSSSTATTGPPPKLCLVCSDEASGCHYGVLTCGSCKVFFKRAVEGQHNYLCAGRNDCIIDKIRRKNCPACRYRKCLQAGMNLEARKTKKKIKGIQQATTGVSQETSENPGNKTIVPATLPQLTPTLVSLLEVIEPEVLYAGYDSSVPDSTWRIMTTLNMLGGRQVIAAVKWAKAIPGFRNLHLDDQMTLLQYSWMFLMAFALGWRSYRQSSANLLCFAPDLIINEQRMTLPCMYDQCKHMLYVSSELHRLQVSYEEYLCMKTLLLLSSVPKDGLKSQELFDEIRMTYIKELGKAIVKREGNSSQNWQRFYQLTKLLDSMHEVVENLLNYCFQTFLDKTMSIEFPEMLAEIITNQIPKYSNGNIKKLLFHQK
Protocol: (A,B). […] The stability of the complex was simulated using molecular dynamics in the GROMACS program. (C) GR binding affinity was estimated using a radioligand binding assay. […] Cell lysate radioactivity was measured using a RackBeta 1215 LC (LKB Wallac, Turku, Finland) spectrometer for 4 min. […] The experiments were performed in triplicate (n = 3).
After 90 min of incubation, the cells were washed twice by centrifugation in cold serum-free medium (1500 rpm, 5 min). The cells were then lysed with RIPA buffer (50 mM Tris (pH 8.0), 150 mM NaCl, 1 mM ethylenediaminetetraacetic acid, 0.1% sodium dodecyl sulfate, 0.5% sodium deoxycholate, 1% triton-X100, 10% glycerin, and protease inhibitor) for 20 min. Lysates were transferred to scintillation liquid, and radioactivity was measured using a RackBeta 1215 LC spectrometer for 4 min. […] IC50 was determined using GraphPad Prism software, Ver.7.0. […] “Top” meant the highest value in dpm and was equal to 100%, while the “bottom” was considered as the lowest value (0%). […] The IC50 values for each ligand were determined by plotting these curves. The experiments were performed in triplicate.

[4] = test system: DDIT4 expression in Granta cells; experiment: Q-PCR of DDIT4 in Granta cells; format: cell-based; conditions: 24 h, 8S-E3 25 µM
Description: as §2, §1, §3

BALB/c female mice = experiment: Glucocorticoid-induced osteoporosis model: bone and skin morphometry, body weight; format: in vivo; conditions: Dex 20 mg/kg
Description: (§4) (A) H&E bone staining and quantification of cortical bone thickness. (B) Q-PCR analysis of Rankl, Mmp9, Tsc2, Trap, and Bglap mRNA expression in bone tissue. […] (C) H&E skin staining and quantification of dermal adipose thickness (50 images per treatment group of 10 animals). Statistically significant differences compared to the control: * p < 0.05, ** p < 0.01.
(§5) The protocol for the experiment was approved by the local N.N. Blokhin National Medical Research Center Ethics Committee and corresponded to the guidelines for the welfare and use of animals in cancer research adopted by The United Kingdom Coordinating Committee on Cancer Prevention Research. […] Body weight was recorded twice a week for toxicity control.
Bone and skin samples from the GIOP experiment were fixed in formaldehyde and embedded in paraffin, and sections were stained with hematoxylin and eosin. After formaldehyde fixation, the bone samples were decalcified in decalcification buffer (0.5 M EDTA, 0.7 mM NaOH, pH7.0) for 14 days, washed twice with PBS, and further processed according to the standard histology protocol. The dermal adipose and bone thickness were quantified in sections stained with hematoxylin and eosin. At least five individual fields per slide of each sample/treatment (at least 50 images/treatment group) were analyzed using Axioplan2 microscope software (“Carl Zeiss”, Jena, Germany). The dermal adipose or bone thickness in treated animals is presented as a percentage of the control animals.

Granta cells = experiment: Cell cycle analysis by PI flow cytometry in Granta cells; format: cell-based; conditions: 24 h, Dex 50 µM, 4S-C2 25 µM, 8S-E3 12.5 µM, 10S-E2 6.25 µM, 13S-G2 1 µM
Protocol: (§6) Figure 5 Pro-apoptotic and anti-cancer effects of synephrine derivatives in vitro and in vivo. (A) Effect of 4S-C2, 8S-E3, 10S-E2, and 13S-G2 on cell cycle progression in K562 and Granta cells after 24 h of incubation. The cells were fixed with ethanol, stained with propidium iodide, and analyzed using flow cytometry. Statistically significant difference compared to control: *—p < 0.05, **—p < 0.01 (n = 3). (B) In vivo anti-cancer activity was evaluated using the transplantable P388 murine lymphoma model. […] Tumor nodule size was measured twice a week using digital calipers. Statistically significant differences compared to the control: * p < 0.05, ** p < 0.01.
The distribution of cells by cell cycle phases was evaluated using propidium iodide (PI) staining, as described in [19]. […] After incubation, the cells were resuspended in 70% ethanol and fixed for 2h at 4 °C. Cells were then washed twice with cold PBS, pH 7.4, and stained with 500 µL of cold propidium iodide (PI) solution (50 µg/mL PI, 1% Triton X-100, and 100 µg/mL RNase A in PBS). The cell cycle distribution of cells in samples was analyzed using an FACSCalibur Flow Cytometer (“BD Biosciences”, San Jose, CA, USA). The experiments were performed in triplicate.

[5] = test system: Rankl, Mmp9, Tsc2, Trap, Bglap mRNA expression in bone tissue; experiment: Glucocorticoid-induced osteoporosis model: Q-PCR of marker genes in bone tissue; format: in vivo, mice; conditions: 5 weeks, Dex 20 mg/kg
Protocol: as §4
Total RNA isolation from cell cultures and murine bones, reverse transcription, and Q-PCR were performed as described in [36]. […] Results were normalized to the expression of the housekeeping RPL27 и Rpl27 genes. The experiments were performed in triplicate.
as §5

P388 murine lymphoma = experiment: Transplantable P388 murine lymphoma model; format: in vivo, mice; conditions: Dex 1 mg/kg
Protocol: as §6
The protocol for the experiment was approved by the local N.N. Blokhin National Medical Research Center Ethics Committee and corresponded to the guidelines for the welfare and use of animals in cancer research adopted by The United Kingdom Coordinating Committee on Cancer Prevention Research. P388 cells were injected i.p. into 5-week-old female DBA/2 mice (“Stolbovaya Farm”, Stolbovaya, Russia). After 15 days, the cells were collected from the peritoneum, washed, and resuspended in PBS. For the experiments, 0.1 mL containing 2 million cells obtained from the ascites was inoculated s.c. in 5-week-old female BDF1 mice (“Stolbovaya Farm”, Stolbovaya, Russia). […] Body weight was recorded twice a week for toxicity determination. Tumor size was measured three times per week using digital calipers.

[6] = test system: FKBP51, GILZ, DDIT4 mRNA expression in K562 and Granta cells; experiment: Q-PCR of GR transactivation marker genes; format: cell-based; conditions: 4 h (FKBP51, GILZ) or 24 h (DDIT4); Dex 10 µM, 10S-E2 0.1 µM; vs control
Description: as §2, §1, §3

[7] = i.p. every 24 h for 5 weeks, 10S-E2 10 mg/kg

SMILES | IC50 [1] [µM] | GR phosphorylation level at Ser211 [2] | DDIT4 expression [3] | IC50 (GR) [µM] | decrease in DDIT4 expression [4] | animal body weight vs control (BALB/c female mice; GIOP study, 10S-E2 10 mg/kg i.p. every 24 h for 5 weeks) | loss of cortical bone thickness (BALB/c female mice; [7]) [%] | reduction of dermal adipose tissue / skin atrophy (BALB/c female mice; [7]) | level of apoptosis (sub-G1-phase cell population) (Granta cells) | Bglap mRNA expression in bone tissue [5] | Mmp9 mRNA expression in bone tissue ([5]; 10S-E2 10 mg/kg) | Rankl mRNA expression in bone tissue ([5]; 10S-E2 10 mg/kg) | Trap mRNA expression in bone tissue ([5]; 10S-E2 10 mg/kg) | Tsc2 mRNA expression in bone tissue ([5]; 10S-E2 10 mg/kg) | animal body weight change vs control (P388 murine lymphoma; P388 model, 10S-E2 10 mg/kg i.p. 3 times per week) | inhibition of tumor growth (P388 murine lymphoma; s.c. P388 in BDF1 mice, i.p. 3 times per week, 10S-E2 10 mg/kg) | expression of TA marker genes FKBP51, GILZ, DDIT4 [6]
OCCNCC(O)c1ccc(OCc2ccccc2)cc1 (stereo not drawn) [8S-E3, 1-(4-(benzyloxy)phenyl)-2-((2-hydroxyethyl)amino)ethanol] | 80 to 120 | weak increase | strongly attenuated DDIT4 expression by more than three times | 0.08 | 1,5 fold | – | – | – | – | – | – | – | – | – | – | – | –
C[C@@H]1C[C@H]2[C@@H]3CCC4=CC(=O)C=C[C@]4(C)[C@@]3(F)[C@@H](O)C[C@]2(C)[C@@]1(O)C(=O)CO [Dex, dexamethasone, reference compound] | – | weak increase | – | – | – | no statisticall y si gnificant differences; also recorded: similar | 30 | approximately 70% | higher than that in the control samples | Downregulation | tendency toward Mmp9 and Tsc2 upregulation | upregulation | upregulation | tendency toward Mmp9 and Tsc2 upregulation | no statisticall y si gnificant differences | 60–70% | 5-30 fold
